# In paper PMC9738062, “Selectively Halogenated Flavonolignans—Preparation and Antibacterial Activity” (International Journal of Molecular Sciences, 2022):
# How the values were obtained:
# [1] = system: Vibrio campbellii BAA 1119 (AI-2); test: Viability of the quorum-sensing reporter culture (resazurin assay), AI-2 strain; format: cell-based; settings: BAA1119, V. campbellii BAA 1119, resazurin assay, read-out: IC50 (concentration that halved the viability)
# Text: (§1) Commercially available strains of Vibrio campbellii were used to evaluate the ability of flavonoids and their derivatives to inhibit bacterial quorum sensing. V. campbellii uses two types of autoinducing molecules for its communication—N-acyl-homoserine lactones (Autoinducer I, AI-1, strain BAA 1118) and furanosyl borate diester (Autoinducer II, AI-2, strain BAA 1119). AI-1-based communication is mainly used by Gram-negative bacteria, while AI-2-based communication is found in both Gram-negative and Gram-positive bacteria. The mutant strains of V. campbellii BA1118 and BA1119 respond only to AI-1 or AI-2, respectively, and the response to the respective AI concentration is measured as luminescence. The higher the AI concentration, the higher the luminescence signal. The ability to inhibit the communication was expressed as the selectivity index (SI), calculated as the ratio between the concentration that halved the viability (IC50) and the concentration that halved the communication (EC50) of the respective V. campbellii strains. […] The antimicrobial activity of quorum-sensing inhibitors is undesirable because it creates a selection pressure and can lead to the development of resistance.
# (§2) The inhibition of bacterial extracellular communication was measured using Vibrio campbellii strains BAA-1118 and BAA-1119. The experiment was performed according to the methods of Szemerédi et al.. Briefly, 5 × 10^5 CFU/mL (colony-forming units per milliliter) were seeded in an Autoinducer Bioassay medium (NaCl 17.5 g/L, MgSO4 12.3 g/L, Casamino acids 2 g/L, 10 mL of 1 M potassium phosphate pH 7.0, 10 mL of 0.1 M L-arginine, and 10 mL of glycerol in 970 mL of deionized water) in a 96-well plate. Immediately, the tested compounds were added at the final concentration of 0.2–200 µM and luminescence was recorded for 16 h by a SpectraMax i3x microplate reader set at 30 °C, an integration time of 10,000 ms, and shaking for 60 s before measurement. […] The selectivity index was calculated as the […]. The EC50 and IC50 were calculated using GraphPad Prism software version 5.00 for Windows with a nonlinear regression curve fit.
# [2] = system: Vibrio campbellii BAA 1118 (AI-1); test: Viability of the quorum-sensing reporter culture (resazurin assay), AI-1 strain; format: cell-based; settings: BAA1118, V. campbellii BAA 1118, resazurin assay, read-out: IC50 (concentration that halved the viability)
# Text: as §1, §2
# [3] = system: Vibrio campbellii BAA 1118 (AI-1); test: microbe, parasite or virus in culture; format: cell-based; settings: for EC50: Vibrio campbellii, BAA1118, 16 h, read-out: EC50 (concentration that halved the communication); for SI (selectivity index): ratio IC50 (viability) / EC50 (communication), BAA 1118
# Text: as §1, §2
# [4] = system: Vibrio campbellii BAA 1119 (AI-2); test: microbe, parasite or virus in culture; format: cell-based; settings: for EC50: Vibrio campbellii, BAA1119, 16 h, read-out: EC50 (concentration that halved the communication); for SI (selectivity index): ratio IC50 (viability) / EC50 (communication), BAA 1119
# Text: as §1, §2
# [5] = Ferric reducing antioxidant power (FRAP); settings: Fe2+ equivalents
# Experimental: (§3) To further elucidate how halogenation affects other properties of the flavonoids studied, their 2,2′-azino-bis-(3-ethylbenzothiazoline-6-sulfonic acid) cation (ABTS) and 1,1-diphenyl-2-picrylhydrazyl (DPPH) radical scavenging, the Folin–Ciocalteu reagent (FCR) reducing, the ferric-reducing antioxidant power (FRAP), and the anti-lipoperoxidation activities were evaluated by in vitro methods (Supplementary Information Tables S1 and S2).
# (§4) The antiradical activity was evaluated by the ability to scavenge ABTS and DPPH radicals. Reducing capacity was assessed by the ability to reduce the Folin–Ciocalteu reagent (FCR) and ferric ions (FRAP). The ability to inhibit lipid peroxidation of pooled male rat microsomal liver membranes induced by tert-butyl hydroperoxide was also evaluated and the results were expressed as IC50 values.
# [6] = system: lipopolysaccharide-stimulated macrophages (RAW 264.7); test: Inhibition of nitric oxide production (Griess reagent); format: cell-based, murine; settings: Mus musculus, RAW264.7; LPS 100 ng/mL, 24 h; highest tested concentration 100 µM; read-out: NO Production IC50
# Experimental: The anti-inflammatory activity of the tested flavonolignans was determined as the ability to reduce nitric oxide production by murine macrophages (RAW 264.7) stimulated by bacterial lipopolysaccharides, as previously described. […] For the experiment, 1 × 10^6 cells/mL was seeded into the 96-well plate (100 µL/well). […] After 24 h, the medium was mixed with Griess reagent (0.04 g/mL), prepared freshly in deionized water at the ratio of 1:1. The absorbance was measured after 15 min at 540 nm by the SpectraMax i3x microplate reader. Cell viability was determined by resazurin assay.
# [7] = system: doxorubicin-resistant human ovarian carcinoma (HOC/DOX); test: Cytotoxicity (resazurin assay, 72 h); format: cell-based; settings: for IC50: Homo sapiens, 72 h, resazurin assay; for SI (selectivity index): ratio IC50 for HDF / IC50 for HOC/DOX
# Experimental: (§5) The cytotoxicity of flavonoids and their halogenated derivatives was determined as their ability to decrease the viability of human dermal fibroblasts (HDF) and doxorubicin-resistant human ovarian carcinomas (HOC/DOX). Both cell lines were cultivated in Dulbecco’s Modified Eagle’s Medium supplemented with fetal bovine serum (FBS, 10% v/v) and 1 × antibiotic antimycotic solution and incubated at 37 °C in the atmosphere of 5% CO2. The experiment was performed according to a previously published method. Briefly, 1 × 10^5 cells/mL were seeded into a 96-well plate (100 µL/well). After 24 h, flavonoids and their derivatives were administered at the concentration range of 31.25–500 µM. After 72 h, the viability was determined by resazurin assay (0.03 mg/mL of resazurin in PBS), where the fluorescence was measured after 2 h of incubation by the SpectraMax i3x microplate reader at a wavelength of 560/590 nm (excitation/emission). The concentration inhibiting half of the population (IC50) was determined using nonlinear regression in GraphPad Prism software. The selectivity index was calculated as the ratio between the IC50 for HDF (control, non-cancerous cells) and the IC50 for HOC/DOX (cancer cells).
# [8] = system: human dermal fibroblasts (HDF); test: Cytotoxicity (resazurin assay, 72 h); format: cell-based; settings: Fibroblast
# Experimental: as §5
# [9] = system: multidrug-resistant P. aeruginosa; test: Sensitization of antibiotic-resistant bacteria (compound plus breakpoint antibiotic concentration); format: cell-based, Pseudomonas aeruginosa; settings: flavonoid 40 µM, 24 h; for Effect on viability in combination with colistin: colistin 2 mg/L; for Effect on viability in combination with imipenem: imipenem 4 mg/L; as to Effect on viability in combination with imipenem: key: -: no effect (100% viability) was observed up to the highest flavonolignan concentration tested (>40 µM); reversion of resistance: the compound reversed the resistant phenotype to a sensitive one
# Experimental: (§6) Clinically relevant antibiotics were selected for sensitization testing according to the European Committee on Antimicrobial Susceptibility Testing (EUCAST). Neither colistin and imipenem at breakpoint concentrations (according to EUCAST, […] and […]) affected the growth of the multidrug-resistant clinical strain of P. aeruginosa. Similarly, neither chloramphenicol and gentamicin at breakpoint concentrations ([…], respectively) affected the multidrug-resistant clinical strain of S. aureus. Flavonoids and their derivatives (1–40 µM) were used in combination therapy, along with the breakpoint concentration of antibiotics. After co-incubation, the minimum inhibitory concentration of flavonoids inhibiting the visible growth of bacteria was determined (Table 2).
# (§7) Clinical isolates of P. aeruginosa and S. aureus were obtained from the General University Hospital in Prague (Prague, Czech Republic). P. aeruginosa was resistant to ciprofloxacin, oxacillin, ticarcillin, colistin, gentamicin, and imipenem. S. aureus was resistant to ciprofloxacin, gentamicin, erythromycin, chloramphenicol, clindamycin, oxacillin, cefotaxime, and vancomycin. Bacteria were cultivated in Mueller–Hinton broth (MH broth, Merck). The susceptibility of the bacteria was evaluated by the minimum inhibitory concentrations (MIC). The MIC of derivatives in the presence of the antibiotic cut-off concentration was determined according to ISO 20776-1: 2020. The antibiotic cut-off concentration was chosen according to the European Committee on Antimicrobial Susceptibility Testing (EUCAST, Clinical breakpoints—bacteria (ver. 11.0), 1 January 2021). The 40 µM concentration of the derivatives was chosen as the highest concentration for the tests. Cell viability was determined by measuring absorbance (A590 nm) after 24 h incubation at 37 °C, 150 rpm.
# [10] = system: multidrug-resistant S. aureus; test: as above; format: cell-based, Staphylococcus aureus; settings: flavonoid 40 µM, 24 h; for Effect on viability in combination with chloramphenicol: chloramphenicol 8 mg/L
# Experimental: as §6, §7
# [11] = Folin-Ciocalteu reagent reduction; settings: gallic acid equivalents
# Experimental: as §3, §4
# [12] = DPPH radical scavenging; settings: 1,1-diphenyl-2-picrylhydrazyl radical scavenging
# Experimental: as §3, §4
# [13] = ABTS cation radical scavenging; settings: vitamin C equivalent antioxidant capacity
# Experimental: as §3, §4
compound,measurement,setting,value
"O=c1[nH]cc(F)c(=O)[nH]1 [5-Fluorouracil, reference compound]",IC50,[1],0.00341 µM
same,IC50,[2],0.00068 µM
same,EC50,[3],0.00039 µM
same,SI (selectivity index),[3],1.73 ± 0.05
same,EC50,[4],0.00044 µM
same,SI (selectivity index),[4],7.8 ± 0.5
"[Fe+2] [Fe2+, reference compound]",FRAP [Fe2+eq],[5],1.01 Fe2+eq
"COc1ccc2c(c1)c(CC(=O)O)c(C)n2C(=O)c1ccc(Cl)cc1 [Indomethacin, reference compound]",IC50,[6],51.3 ± 0.6 µM
same,IC50,[7],17.1 ± 0.6 µM
same,SI (selectivity index),[7],12.94
same,IC50,[8],222 µM
"CC1(C)[C@H](C(=O)O)N2C(=O)C[C@H]2S1(=O)=O [Sulbactam, reference compound]",Effect on viability in combination with colistin,[9],-
same,Effect on viability in combination with imipenem,[9],-
same,Effect on viability in combination with chloramphenicol,[10],reversion of resistance
same,Effect on viability in combination with gentamicin,[10]; gentamicin 1 mg/L,-
"COc1cc([C@H]2Oc3cc([C@H]4Oc5c(Br)c(O)cc(O)c5C(=O)[C@@H]4O)ccc3O[C@@H]2CO)ccc1O [compound 19, 8-bromosilybin A]",IC50,[6],36.4 ± 1.7 µM
same,FCR [GAE],[11],1.01 ± 0.02 GAE
same,IC50,[12],> 500 µM
same,IC50,[1],> 200 µM
same,ABTS [CEAC],[13],0.68 ± 0.03 CEAC
same,IC50,[2],115 ± 5.4 µM
same,Effect on viability in combination with colistin,[9],-
same,Effect on viability in combination with imipenem,[9],-
same,Effect on viability in combination with chloramphenicol,[10],-
same,EC50,[3],33.9 ± 1.8 µM
same,SI (selectivity index),[3],3.4 ± 0.3
same,EC50,[4],4.6 ± 0.3 µM
same,SI (selectivity index),[4],≥43.1 ± 2.6
same,FRAP [Fe2+eq],[5],0.057 ± 0.002 Fe2+eq
same,IC50,[7],202 µM
same,SI (selectivity index),[7],0.38
same,IC50,[8],77.4 ± 1.1 µM
"COc1cc([C@@H]2Oc3cc([C@H]4Oc5c(Br)c(O)cc(O)c5C(=O)[C@@H]4O)ccc3O[C@H]2CO)ccc1O [compound 20, 8-bromosilybin B]",IC50,[6],38 ± 2.2 µM
same,FCR [GAE],[11],1.10 ± 0.02 GAE
same,IC50,[12],> 500 µM
same,ABTS [CEAC],[13],0.47 ± 0.01 CEAC
same,IC50,[2],127 ± 4 µM
same,Effect on viability in combination with colistin,[9],-
same,Effect on viability in combination with imipenem,[9],-
same,Effect on viability in combination with chloramphenicol,[10],-
same,EC50,[3],44.2 ± 0.7 µM
same,SI (selectivity index),[3],2.9 ± 0.1
same,EC50,[4],4.7 ± 0.2 µM
same,SI (selectivity index),[4],≥42.9 ± 2.1
same,FRAP [Fe2+eq],[5],0.056 ± 0.002 Fe2+eq
same,IC50,[7],227 µM
same,SI (selectivity index),[7],0.43
same,IC50,[8],97.9 ± 4.4 µM
"COc1cc([C@@H]2Oc3cc([C@H]4Oc5c(I)c(O)cc(O)c5C(=O)[C@@H]4O)ccc3O[C@H]2CO)ccc1O [compound 24, 8-iodosilybin B]",FCR [GAE],[11],1.01 ± 0.02 GAE
same,IC50,[12],97.1 µM
same,ABTS [CEAC],[13],0.47 ± 0.04 CEAC
same,FRAP [Fe2+eq],[5],0.079 ± 0.002 Fe2+eq
"COc1cc([C@H]2Oc3cc([C@H]4Oc5c(I)c(O)c(I)c(O)c5C(=O)[C@@H]4O)ccc3O[C@@H]2CO)ccc1O [compound 25, 6,8-diiodosilybin A]",FCR [GAE],[11],0.95 ± 0.01 GAE
same,IC50,[12],> 500 µM
same,ABTS [CEAC],[13],0.41 ± 0.01 CEAC
same,FRAP [Fe2+eq],[5],0.053 ± 0.003 Fe2+eq
"COc1cc([C@@H]2Oc3cc([C@H]4Oc5c(I)c(O)c(I)c(O)c5C(=O)[C@@H]4O)ccc3O[C@H]2CO)ccc1O [compound 26, 6,8-diiodosilybin B]",FCR [GAE],[11],0.84 ± 0.04 GAE
same,IC50,[12],249 µM
same,ABTS [CEAC],[13],0.48 ± 0.01 CEAC
same,FRAP [Fe2+eq],[5],0.048 ± 0.001 Fe2+eq
"O=C(O)c1cc(O)c(O)c(O)c1 [gallic acid, reference compound]",FCR [GAE],[11],1.00 GAE
"O=C1O[C@H]([C@@H](O)CO)C(O)=C1O [vitamin C, reference compound]",ABTS [CEAC],[13],1.01 CEAC
